Source: patent US6087119A, “Method for determining the catalytic activity of factor IXa” (Roche Diagnostics GmbH, priority 1996, dated 2000)
Square brackets hold non-standard residues; d marks the D form. Peptide text beside a SMILES is read from it. * marks the point of attachment. dChg = N[C@@H](C(=O)O)C1CCCCC1; pNA = O=[N+]([O-])c1ccc(N*)cc1; Ms = CS(=O)(=O)*

Tests used:
rFIXa (human) = rFIXa (human) (Homo sapiens, UniProt P00740); assay: Kinetics of cleavage of chromogenic peptide substrates by rFIXa with ethylene glycol (Lineweaver Burk); type: biochemical; parameters: coding for the FIX protease domain from amino acid position 181 to 415; Met (ATG start codon) (N); made in house; settings: pH 7.4
Description: (§1) MeSO2 -D-HHT-Gly-Arg-pNA (0.102-1.02 mmol/l)
0.48 μmol/l rFIXa (human)
MOC-D-Nle-Gly-Arg-pNA (0.102-1.02 mmol/l)
MeSO2 -D-CHG-Gly-Arg-pNA (0.102-1.02 mmol/l)
0.28 μmol/l rFIXa (human)
(§2) The kinetic constants (Kcat /Km) were determined graphically according to Lineweaver Burk (Km and Kcat cannot be determined separately since the straight lines go through the origin).

native FIXa (human) = native FIXa (human) (Homo sapiens, UniProt P00740); assay: Kinetics of cleavage of chromogenic peptide substrate by native FIXa with ethylene glycol (Lineweaver Burk); type: biochemical; parameters: 0.14 μmol/l native FIXa (human); settings: native FIXa 0.29 μmol/l, pH 7.4
Description: as §1
0.29 μmol/l native FIXa (human)
as §2

Chain of rFIXa (human) (P00740 227-461): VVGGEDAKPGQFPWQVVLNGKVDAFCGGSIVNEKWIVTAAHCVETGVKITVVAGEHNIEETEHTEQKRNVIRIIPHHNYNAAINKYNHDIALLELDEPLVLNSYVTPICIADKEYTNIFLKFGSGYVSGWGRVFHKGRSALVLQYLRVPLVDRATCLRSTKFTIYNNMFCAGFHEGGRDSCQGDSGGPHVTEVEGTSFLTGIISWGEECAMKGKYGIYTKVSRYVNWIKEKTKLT
Chain of rFIXa (human) (P00740 131-226): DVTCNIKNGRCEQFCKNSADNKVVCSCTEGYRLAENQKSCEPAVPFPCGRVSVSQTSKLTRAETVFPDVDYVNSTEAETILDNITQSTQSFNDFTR
Chain of native FIXa (human) (P00740 227-461 limits assumed): as the sequence (P00740 227-461) above
Chain of native FIXa (human) (P00740 47-191 partner limits assumed): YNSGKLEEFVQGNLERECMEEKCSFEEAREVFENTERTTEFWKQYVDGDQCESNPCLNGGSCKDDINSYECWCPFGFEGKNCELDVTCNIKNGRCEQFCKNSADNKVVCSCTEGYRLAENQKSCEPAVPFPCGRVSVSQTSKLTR

| Compound | kkat /Km (rFIXa (human); substrate MeSO2-D-CHG-Gly-Arg-pNA, rFIXa […], 8% ethylene glycol) [M⁻¹ s⁻¹] | kkat /Km (rFIXa (human); substrate MeSO2-D-CHG-Gly-Arg-pNA, rFIXa […], 16% ethylene glycol) [M⁻¹ s⁻¹] | kkat /Km (rFIXa (human); substrate MeSO2-D-CHG-Gly-Arg-pNA, rFIXa […], 25% ethylene glycol) [M⁻¹ s⁻¹] | kkat /Km (rFIXa (human); substrate MeSO2-D-CHG-Gly-Arg-pNA, rFIXa […], 33% ethylene glycol) [M⁻¹ s⁻¹] | kkat /Km (rFIXa (human); substrate MeSO2-D-CHG-Gly-Arg-pNA, rFIXa […], 41% ethylene glycol) [M⁻¹ s⁻¹] | kkat /Km (rFIXa (human); substrate MeSO2-D-CHG-Gly-Arg-pNA, rFIXa […], 50% ethylene glycol) [M⁻¹ s⁻¹] | kkat /Km (rFIXa (human); rFIXa 0.48 μmol/l, 8% ethylene glycol) [M⁻¹ s⁻¹] | kkat /Km (rFIXa (human); rFIXa 0.48 μmol/l, 16% ethylene glycol) [M⁻¹ s⁻¹] | kkat /Km (rFIXa (human); rFIXa 0.48 μmol/l, 25% ethylene glycol) [M⁻¹ s⁻¹] | kkat /Km (rFIXa (human); rFIXa 0.48 μmol/l, 33% ethylene glycol) [M⁻¹ s⁻¹] | kkat /Km (rFIXa (human); rFIXa 0.48 μmol/l, 41% ethylene glycol) [M⁻¹ s⁻¹] | kkat /Km (rFIXa (human); rFIXa 0.48 μmol/l, 50% ethylene glycol) [M⁻¹ s⁻¹] | kkat /Km (native FIXa (human); 8% ethylene glycol) [M⁻¹ s⁻¹] | kkat /Km (native FIXa (human); 16% ethylene glycol) [M⁻¹ s⁻¹] | kkat /Km (native FIXa (human); 25% ethylene glycol) [M⁻¹ s⁻¹] | kkat /Km (native FIXa (human); 33% ethylene glycol) [M⁻¹ s⁻¹] | kkat /Km (native FIXa (human); 41% ethylene glycol) [M⁻¹ s⁻¹] | kkat /Km (native FIXa (human); 50% ethylene glycol) [M⁻¹ s⁻¹] |
| --- | --- | --- | --- | --- | --- | --- | --- | --- | --- | --- | --- | --- | --- | --- | --- | --- | --- | --- |
| CS(=O)(=O)N[C@@H](C(=O)NCC(=O)N[C@@H](CCCNC(=N)N)C(=O)Nc1ccc([N+](=O)[O-])cc1)C1CCCCC1 [MeSO2 --D--CHG--Gly--Arg--pNA, MeSO2 -D-CHG-Gly-Arg-pNA] (Ms-[dChg]-Gly-Arg-pNA) | 637 | 1974 | 2880 | 3480 | 1929 | 576 |  |  |  |  |  |  |  |  |  |  |  |  |
| CS(=O)(=O)N[C@H](CC1CCC(O)CC1)C(=O)NCC(=O)N[C@@H](CCCNC(=N)N)C(=O)Nc1ccc([N+](=O)[O-])cc1 (stereo partly drawn) [MeSO2 --D--HHT--Gly--Arg--pNA, MeSO2 -D-HHT-Gly-Arg-pNA] |  |  |  |  |  |  | 348 | 515 | 1018 | 1018 | 692 | 172 | 299 | 737 | 1169 | 1395 | 922 | 390 |
